Counter-ions that a name gives are not always drawn. Like-named read-outs stand apart in the source and are kept apart here.
Columns and labels:
MAO-A [1] = molecular target: T1, MAO-A (Rattus norvegicus, UniProt P21396); assay: Inhibition of MAO activity in vitro (5-HT as substrate); type: biochemical
T1 construct: The MAO enzyme source was a homogenate of rat brain in 0.3 M sucrose 1:20 w/v; from tissue; host or cells: rat brain homogenate
T1 sequence (P21396 1-526): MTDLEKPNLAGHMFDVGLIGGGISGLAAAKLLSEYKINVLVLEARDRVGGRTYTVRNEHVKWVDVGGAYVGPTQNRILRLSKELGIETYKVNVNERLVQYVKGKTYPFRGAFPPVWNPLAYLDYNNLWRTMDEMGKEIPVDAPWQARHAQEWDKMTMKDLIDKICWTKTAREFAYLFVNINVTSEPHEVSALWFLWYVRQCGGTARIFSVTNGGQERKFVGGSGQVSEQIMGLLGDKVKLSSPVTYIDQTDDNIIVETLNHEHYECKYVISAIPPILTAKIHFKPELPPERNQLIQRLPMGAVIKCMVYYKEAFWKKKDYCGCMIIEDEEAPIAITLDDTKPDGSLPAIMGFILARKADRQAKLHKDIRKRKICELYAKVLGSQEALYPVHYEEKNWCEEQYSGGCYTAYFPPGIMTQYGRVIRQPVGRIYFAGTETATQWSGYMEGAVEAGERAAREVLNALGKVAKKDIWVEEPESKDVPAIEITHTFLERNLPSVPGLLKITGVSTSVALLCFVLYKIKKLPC
Description: (§1) Inhibition of MAO Activity In Vitro Experimental Protocol
(§2) The reaction was then stopped by addition of citric acid. Radioactivity indicates the production of 5-HT and PEA metabolites formed as a result of MAO activity.
(§3) A mixture of toluene: ethyl acetate (1:1) was added to the reaction and mixed for 10 minutes, followed by 5 minutes of centrifugation at 1760 g. The upper phase was taken for radioactive determination by liquid scintillation spectrometry.

MAO-B [2] = molecular target: T2, MAO-B (Rattus norvegicus, UniProt P19643); assay: Inhibition of MAO activity in vitro (PEA as substrate); type: biochemical
T2 construct: The MAO enzyme source was a homogenate of rat brain in 0.3 M sucrose 1:20 w/v; from tissue; host or cells: rat brain homogenate
T2 sequence (P19643 1-520): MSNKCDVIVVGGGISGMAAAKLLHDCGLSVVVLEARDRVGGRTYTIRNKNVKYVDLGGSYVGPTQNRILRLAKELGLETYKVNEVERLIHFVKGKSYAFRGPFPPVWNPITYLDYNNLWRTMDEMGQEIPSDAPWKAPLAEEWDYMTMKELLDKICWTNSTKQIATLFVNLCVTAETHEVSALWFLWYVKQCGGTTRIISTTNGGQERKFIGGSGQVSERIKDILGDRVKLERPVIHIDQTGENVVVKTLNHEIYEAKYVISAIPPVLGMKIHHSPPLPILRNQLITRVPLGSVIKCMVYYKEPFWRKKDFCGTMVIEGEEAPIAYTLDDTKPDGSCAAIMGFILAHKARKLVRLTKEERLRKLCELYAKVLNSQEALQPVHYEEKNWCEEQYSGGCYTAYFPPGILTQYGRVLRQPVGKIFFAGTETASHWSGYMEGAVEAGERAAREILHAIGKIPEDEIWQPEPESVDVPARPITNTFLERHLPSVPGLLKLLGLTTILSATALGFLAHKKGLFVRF
Description: as §1, §2, §3

MAO-B [3] = molecular target: T2, MAO-B; assay: Inhibition of MAO activity in vivo, MAO-B; settings: tissue not stated; for inhibition at 10 µmol/kg: 10 μmol/kg (3.2-4 mg/kg), acute
MAO-A [4] = molecular target: T1, MAO-A; assay: Inhibition of MAO activity in vivo, MAO-A; settings: tissue not stated; for inhibition at 10 µmol/kg: 10 μmol/kg (3.2-4 mg/kg), acute
MAO-B [5] = molecular target: T2, MAO-B; assay: Inhibition of MAO activity in vivo, MAO-B
Description: (§4) Inhibition of MAO Activity In Vivo: Chronic Treatment Experimental Protocol
(§5) Rats were treated with the test compounds (Table 5) at several dose levels by oral administration, one dose daily for 7-21 days, and decapitated 2 hours after the last dose. The activities of MAO-A and MAO-B were determined in the brain, liver and intestine as described in the previous example. Inhibition of MAO activity was calculated by dividing MAO activity in the treated rats by MAO activity in the control rats (saline treated, MAO activity in these rats was taken as 100%).
as §3

MAO-A [6] = molecular target: T1, MAO-A; assay: Inhibition of MAO activity in vivo, MAO-A
Description: as §4, §5, §3

[7] = rat brain homogenate, 60 min pre-incubation at 37° C., 14C 5-HT substrate, read-out: In vitro IC50 A
[8] = rat brain homogenate, 60 min pre-incubation at 37° C., 14C PEA substrate, read-out: In vitro IC50 B
[9] = oral, 1 mg/kg (2.9 μmol/kg), 7 days, tissue not stated
[10] = oral, 15 mg/kg (44 μmol/kg), 7 days, tissue not stated
[11] = oral, 150 μmol/kg, 7 days, tissue not stated

Row | Compound | IC50 (MAO-A [1]; [7]) [µM] | IC50 (MAO-B [2]; [8]) [µM] | also measured
1 | C#CCN(C)[C@@H]1CCc2ccc(O)cc21 [Cmpd 114, (R)3-(methyl-prop-2-ynylamino)-5-indanol] | 0.01 | 0.03 | –
2 | C#CCN(C)C1CCc2ccc(O)cc21 (racemic) [Cmpd 112, 3-(Methyl-Prop-2-Ynyl Amino)-5-Indanol] | 0.03 | 0.01 | –
3 | C#CCN(C)[C@@H]1CCc2ccc(OC(=O)C(C)(C)C)cc21 [Cmpd 130] | 0.56 | 2.5 | inhibition at 10 µmol/kg (MAO-B [3]): 22%; inhibition at 10 µmol/kg (MAO-A [4]): 24%
4 | C#CCN(C)C1CCc2cccc(O)c21 (racemic) [Cmpd 118, 3-(methyl-prop-2-ynylamino)-4-indanol] | 0.07 | – | IC50 (MAO-B [2]): 0.05 µM
5 | C#CCN(C)C1CCc2cc(OC(=O)c3ccccc3)c(OC(=O)c3ccccc3)cc21 (racemic) [Cmpd 137, 5,6-Di-O-Benzoyl-1-(Methyl-Prop-2-Ynyl-Amino)-Indan HCl] | 1.4 | 21 | –
6 | C#CCN(C)[C@H]1CCc2ccc(O)cc21 [Cmpd 113, (S)3-(methyl-prop-2-ynylamino)-5-indanol] | 12 | 23 | –
7 | C#CCN[C@@H]1CCc2ccc(OC(=O)N(C)CC)cc21 [Cmpd 147] | 550 | > 1000 | –
8 | C#CCN(C)[C@@H]1CCc2ccc(OC(C)=O)cc21 [Cmpd 116] | 0.035 | 0.0056 | –
9 | C#CCN(C)C1CCc2c(OC(=O)c3c(OC)cccc3OC)cccc21 (racemic) [Cmpd 121] | 0.34 | 3 | –
10 | C#CCN(C)C1CCc2c(OC(C)=O)cccc21 (racemic) [Cmpd 119] | 0.018 | 0.11 | –
11 | C#CCN(C)C1CCc2cccc(OC(=O)N(C)CCC)c21 (centres unmarked) [Cmpd 144] | 71 | 63 | –
12 | C#CCN(C)[C@@H]1CCc2ccc(OC(=O)N(C)CC)cc21 [Cmpd 140] | – | 12 | IC50 (MAO-A [1]): 4.3 µM; inhibition at 2 µmol/kg (MAO-B [5]; po, read-out: % inhibition B): 10%; inhibition at 10 µmol/kg (MAO-B [5]; po, read-out: % inhibition B): 30%; inhibition at 50 µmol/kg (MAO-B [5]; po, read-out: % inhibition B): 73%; inhibition at 2 µmol/kg (MAO-A [6]; po, read-out: % inhibition A): 6%; inhibition at 10 µmol/kg (MAO-A [6]; po, read-out: % inhibition A): 51%; inhibition at 50 µmol/kg (MAO-A [6]; po, read-out: % inhibition A): 65%
13 | C#CCN(C)C1CCc2cc(OC(=O)c3ccccc3)c(OC(=O)c3ccccc3)cc2C1 (racemic) [Cmpd 138, 6,7-di-O-benzoyl-2-(methyl-prop-2-ynylamino)-tetralin HCl] | 1.2 | 0.4 | –
14 | C#CCN(C)C1CCc2c(OC(=O)c3ccccc3)cccc21 (racemic) [Cmpd 120] | 0.13 | 0.91 | –
15 | C#CCN(C)C1CCc2c(O)cccc21 (racemic) [Cmpd 117, 1-(methyl-prop-2-ynylamino)-4-indanol] | 0.0083 | 0.07 | –
16 | C#CCNC1CCc2ccc(OC(=O)N(C)CC)cc2C1 (centres unmarked) [Cmpd 149] | 2 | 100 | –

Row | Compound | IC50 (MAO-A [1]; [7]) [µM] | IC50 (MAO-B [2]; [8]) [µM] | also measured
17 | C#CCN(C)[C@@H]1CCc2ccc(OC(=O)CCCC)cc21 [Cmpd 126] | 0.058 | 0.13 | –
18 | C#CCN(C)[C@H]1CCc2ccc(OC(=O)C(C)(C)C)cc21 [Cmpd 129] | 2.5 | 17 | –
19 | C#CCN[C@@H]1CCc2ccc(O)cc21 [Cmpd 101, (R)-3-prop-2-ynylamino-5-indanol mesylate] | – | – | inhibition at 5 mg/kg (MAO-B [5]; po, read-out: % inhibition B): 47%; inhibition at 25 mg/kg (MAO-B [5]; po, read-out: % inhibition B): 65%; inhibition at 5 mg/kg (MAO-A [6]; po, read-out: % inhibition A): 35%; inhibition at 25 mg/kg (MAO-A [6]; po, read-out: % inhibition A): 57%
20 | C#CCN(C)C1CCc2ccc(OC(=O)c3ccccc3)cc2C1 (racemic) [Cmpd 124, 7-O-benzoyl-2-(methyl-prop-2-ynylamino)-tetralin Hcl] | 1.2 | 1.2 | –
21 | C#CCN(C)[C@@H]1CCc2ccc(OC(=O)c3ccccc3C)cc21 [Cmpd 132] | 1.1 | 9.9 | inhibition at 10 µmol/kg (MAO-B [3]): 37%; inhibition at 10 µmol/kg (MAO-A [4]): 41%
22 | C#CCNC1CCCc2ccc(OC(=O)N(C)CC)cc21 (centres unmarked) [Cmpd 148] | 500 | 100 | –
23 | C#CCN(C)C1CCc2cc(O)c(O)cc2C1 (centres unmarked) [Cmpd 139, 6-(methyl-prop-2-ynylamino)-2,3-tetralindiol] | 4.5 | 41 | –
24 | C#CCN(C)C1CCc2cccc(OC(=O)N(C)CC)c21 (centres unmarked) [Cmpd 141] | 65 | 100 | –
25 | C#CCN(C)C1CCc2ccc(O)cc2C1 (racemic) [Cmpd 123, 7-(methyl-prop-2-ynylamino)-2-tetralinol] | 0.41 | 0.48 | –
26 | C#CCN(C)[C@@H]1CCc2ccc(OC(=O)c3ccccc3)cc21 [Cmpd 128] | 0.2 | 1 | inhibition at 1 mg/kg (MAO-B [5]; [9]): 77%; inhibition at 5 mg/kg (MAO-B [5]; oral, 5 mg/kg (15 μmol/kg), 7 days, tissue not stated, read-out: % inhibition B): 91%; inhibition at 15 mg/kg (MAO-B [5]; [10]): 91%; inhibition at 1 mg/kg (MAO-A [6]; [9]): 87%; inhibition at 5 mg/kg (MAO-A [6]; oral, 5 mg/kg (15 μmol/kg), 7 days, tissue not stated, read-out: % inhibition A): 95%; inhibition at 15 mg/kg (MAO-A [6]; [10]): 98%
27 | C#CCN(C)[C@@H]1CCc2ccc(OC(=O)c3c(OC)cccc3OC)cc21 [Cmpd 134] | 1.2 | 5.9 | inhibition at 10 µmol/kg (MAO-B [3]): 0%; inhibition at 10 µmol/kg (MAO-A [4]): 9%
28 | C#CCN(C)C1CCc2c(OC(=O)N(C)CC)cccc21 (centres unmarked) [Cmpd 142] | 0.027 | 4 | –
29 | C#CCN[C@@H]1CCc2ccc(OC(=O)N(C)CC)cc21 [Cmpd 146] | – | – | inhibition at 100 µmol/kg (MAO-B [3]; oral, 100 μmol/kg, 5 days): 74%; inhibition at 100 µmol/kg (MAO-A [4]; oral, 100 μmol/kg, 5 days): 56%; IC50 (MAO-A [1]; read-out: In vitro IC50 A): 300 µM; inhibition at 50 µmol/kg (MAO-B [5]; oral, 50 μmol/kg, 7 days, tissue not stated, read-out: % inhibition B): 52%; inhibition at 150 µmol/kg (MAO-B [5]; [11]): 87%; inhibition at 50 µmol/kg (MAO-A [6]; oral, 50 μmol/kg, 7 days, tissue not stated, read-out: % inhibition A): 46%; inhibition at 150 µmol/kg (MAO-A [6]; [11]): 74%
30 | C#CCN(C)[C@H]1CCc2ccc(OC(=O)c3ccccc3)cc21 [Cmpd 127, Benzoic Acid (S)-3-(Methyl-Prop-2-Ynyl-Amino)-Indan-5-Yl Ester HCl] | 3.8 | 5.6 | –
31 | C#CCN(C)C1CCc2ccc(OC(=O)N(C)CCC)cc21 (centres unmarked) [Cmpd 143] | 5.6 | 9.2 | –
32 | (S)-3-prop-2-ynylamino-5-indanol mesylate [Cmpd 100] | 500 | 300 | –
